Key:
Rattus norvegicus [1] = experiment: Antihyperlipidemic activity in high fat diet-induced hyperlipidemic Sprague-Dawley rat model assessed as increase of blood HDL level at 50 mg/kg, po for 7 days (reference value: 18.6 +/- 1.36 mg/dl); format: functional
Rattus norvegicus [2] = experiment: Antihyperlipidemic activity in high fat diet-induced hyperlipidemic Sprague-Dawley rat model assessed as reduction of body circumference at 50 mg/kg, po for 7 days; format: functional
Rattus norvegicus [3] = experiment: Antihyperlipidemic activity in high fat diet-induced hyperlipidemic Sprague-Dawley rat model assessed as reduction of body weight at 50 mg/kg, po for 7 days; format: functional
Rattus norvegicus [4] = experiment: Antihyperlipidemic activity in high fat diet-induced hyperlipidemic Sprague-Dawley rat model assessed as reduction of blood cholesterol level at 50 mg/kg, po for 7 days (reference value: 128.8 +/- 1.20 mg/dl); format: functional
Rattus norvegicus [5] = experiment: Antihyperlipidemic activity in high fat diet-induced hyperlipidemic Sprague-Dawley rat model assessed as reduction of blood VLDL level at 50 mg/kg, po for 7 days (reference value: 26.2 +/- 1.20 mg/dl); format: functional
Rattus norvegicus [6] = experiment: Antihyperlipidemic activity in high fat diet-induced hyperlipidemic Sprague-Dawley rat model assessed as reduction of blood triglyceride level at 50 mg/kg, po for 7 days (reference value: 142.4 +/- 1.53 mg/dl); format: functional
Rattus norvegicus [7] = experiment: Toxicity in high fat diet-induced hyperlipidemic Sprague-Dawley rat model assessed as increase of locomotor activity at 50 mg/kg, po for 7 days measured for 5 mins; format: organism-based; parameters: dose 50 mg/kg, route oral; settings: in vivo
Rattus norvegicus [8] = experiment: Antihyperlipidemic activity in high fat diet-induced hyperlipidemic Sprague-Dawley rat model assessed as reduction of blood LDL level at 50 mg/kg, po for 7 days (reference value: 51.8 +/- 2.03 mg/dl); format: functional
Rattus norvegicus [9] = experiment: Antihyperlipidemic activity in high fat diet-induced hyperlipidemic Sprague-Dawley rat model assessed as reduction of blood triglyceride level at 250 mg/kg, po for 7 days (reference value: 142.4 +/- 1.53 mg/dl); format: functional
Rattus norvegicus [10] = experiment: Antihyperlipidemic activity in high fat diet-induced hyperlipidemic Sprague-Dawley rat model assessed as reduction of body weight at 250 mg/kg, po for 7 days; format: functional
Rattus norvegicus [11] = experiment: Antihyperlipidemic activity in high fat diet-induced hyperlipidemic Sprague-Dawley rat model assessed as reduction of blood cholesterol level at 250 mg/kg, po for 7 days (reference value: 128.8 +/- 1.20 mg/dl); format: functional
Rattus norvegicus [12] = experiment: Toxicity in high fat diet-induced hyperlipidemic Sprague-Dawley rat model assessed as increase of locomotor activity at 250 mg/kg, po for 7 days measured for 5 mins; format: organism-based; parameters: dose 250 mg/kg, route oral; settings: in vivo
Rattus norvegicus [13] = experiment: Antihyperlipidemic activity in high fat diet-induced hyperlipidemic Sprague-Dawley rat model assessed as increase of blood HDL level at 250 mg/kg, po for 7 days (reference value: 18.6 +/- 1.36 mg/dl); format: functional
Rattus norvegicus [14] = experiment: Antihyperlipidemic activity in high fat diet-induced hyperlipidemic Sprague-Dawley rat model assessed as reduction of blood LDL level at 250 mg/kg, po for 7 days (reference value: 51.8 +/- 2.03 mg/dl); format: functional
Rattus norvegicus [15] = experiment: Antihyperlipidemic activity in high fat diet-induced hyperlipidemic Sprague-Dawley rat model assessed as reduction of body circumference at 250 mg/kg, po for 7 days; format: functional

O=C(O)COc1ccc(-c2csc(NCC(=O)c3ccc([N+](=O)[O-])cc3)n2)cc1
Activity (Rattus norvegicus [1]): 24.6 mg/dL
Activity (Rattus norvegicus [2]): 12.85 cm
Activity (Rattus norvegicus [3]): 258.166 g
Activity (Rattus norvegicus [4]): 106.8 mg/dL
Activity (Rattus norvegicus [5]): 20.2 mg/dL
Activity (Rattus norvegicus [6]): 122.8 mg/dL
Activity (Rattus norvegicus [7]): Non-toxic
Activity (Rattus norvegicus [8]): 43.2 mg/dL

O=C(O)COc1ccc(-c2csc(NCC(=O)c3ccc(Cl)cc3)n2)cc1
Activity (Rattus norvegicus [1]): 18.6 mg/dL
Activity (Rattus norvegicus [2]): 12.35 cm
Activity (Rattus norvegicus [3]): 220.5 g
Activity (Rattus norvegicus [4]): 119.2 mg/dL
Activity (Rattus norvegicus [5]): 27.2 mg/dL
Activity (Rattus norvegicus [6]): 136.6 mg/dL
Activity (Rattus norvegicus [7]): Toxic
Activity (Rattus norvegicus [8]): 50 mg/dL

CCC(=O)Nc1nc(-c2ccc(OCC(=O)O)cc2)cs1
Activity (Rattus norvegicus [1]): 30.4 mg/dL
Activity (Rattus norvegicus [2]): 10.483 cm
Activity (Rattus norvegicus [3]): 224.166 g
Activity (Rattus norvegicus [4]): 86.6 mg/dL
Activity (Rattus norvegicus [5]): 21 mg/dL
Activity (Rattus norvegicus [6]): 103.6 mg/dL
Activity (Rattus norvegicus [7]): Toxic
Activity (Rattus norvegicus [8]): 33 mg/dL

CC(C)OC(=O)C(C)(C)Oc1ccc(C(=O)c2ccc(Cl)cc2)cc1 [FENOFIBRATE]
Activity (Rattus norvegicus [9]): 91.6 mg/dL
Activity (Rattus norvegicus [10]): 229.666 g
Activity (Rattus norvegicus [11]): 83.2 mg/dL
Activity (Rattus norvegicus [12]): Toxic
Activity (Rattus norvegicus [13]): 28.4 mg/dL
Activity (Rattus norvegicus [14]): 37.2 mg/dL
Activity (Rattus norvegicus [15]): 9.5 cm

O=C(O)COc1ccc(-c2csc(NCc3ccccc3)n2)cc1
Activity (Rattus norvegicus [1]): 20.2 mg/dL
Activity (Rattus norvegicus [2]): 13.066 cm
Activity (Rattus norvegicus [3]): 248.5 g
Activity (Rattus norvegicus [4]): 122.2 mg/dL
Activity (Rattus norvegicus [5]): 22.4 mg/dL
Activity (Rattus norvegicus [6]): 140.2 mg/dL
Activity (Rattus norvegicus [7]): Toxic
Activity (Rattus norvegicus [8]): 53.8 mg/dL

O=C(O)COc1ccc(-c2csc(NC(=O)c3ccccc3)n2)cc1
Activity (Rattus norvegicus [1]): 28.4 mg/dL
Activity (Rattus norvegicus [2]): 13.1 cm
Activity (Rattus norvegicus [3]): 239.666 g
Activity (Rattus norvegicus [4]): 89.2 mg/dL
Activity (Rattus norvegicus [5]): 25 mg/dL
Activity (Rattus norvegicus [6]): 114.6 mg/dL
Activity (Rattus norvegicus [7]): Toxic
Activity (Rattus norvegicus [8]): 34.2 mg/dL

CC(=O)Nc1nc(-c2ccc(OCC(=O)O)cc2)cs1
Activity (Rattus norvegicus [1]): 31.8 mg/dL
Activity (Rattus norvegicus [2]): 12.516 cm
Activity (Rattus norvegicus [3]): 250.833 g
Activity (Rattus norvegicus [4]): 104 mg/dL
Activity (Rattus norvegicus [5]): 22.6 mg/dL
Activity (Rattus norvegicus [6]): 107.6 mg/dL
Activity (Rattus norvegicus [7]): Non-toxic
Activity (Rattus norvegicus [8]): 51.4 mg/dL

Nc1ccc(C(=O)CNc2nc(-c3ccc(OCC(=O)O)cc3)cs2)cc1
Activity (Rattus norvegicus [1]): 27 mg/dL
Activity (Rattus norvegicus [2]): 12 cm
Activity (Rattus norvegicus [3]): 237.333 g
Activity (Rattus norvegicus [4]): 77.6 mg/dL
Activity (Rattus norvegicus [5]): 26.2 mg/dL
Activity (Rattus norvegicus [6]): 110.4 mg/dL
Activity (Rattus norvegicus [7]): Toxic
Activity (Rattus norvegicus [8]): 36.8 mg/dL

O=C(O)COc1ccc(-c2csc(NC(=O)CCl)n2)cc1
Activity (Rattus norvegicus [1]): 34.4 mg/dL
Activity (Rattus norvegicus [2]): 9.5 cm
Activity (Rattus norvegicus [3]): 230.666 g
Activity (Rattus norvegicus [4]): 92 mg/dL
Activity (Rattus norvegicus [5]): 28 mg/dL
Activity (Rattus norvegicus [6]): 118.4 mg/dL
Activity (Rattus norvegicus [7]): Toxic
Activity (Rattus norvegicus [8]): 34.8 mg/dL
